{"source": "PubChem BioAssay AID1903", "about": "(Southern Research Specialized Biocontainment Screening …, 2009)"}
{"target": "Large T antigen (Simian virus 40) (UniProt P03070)", "sequence (P03070 whole entry, looked up)": "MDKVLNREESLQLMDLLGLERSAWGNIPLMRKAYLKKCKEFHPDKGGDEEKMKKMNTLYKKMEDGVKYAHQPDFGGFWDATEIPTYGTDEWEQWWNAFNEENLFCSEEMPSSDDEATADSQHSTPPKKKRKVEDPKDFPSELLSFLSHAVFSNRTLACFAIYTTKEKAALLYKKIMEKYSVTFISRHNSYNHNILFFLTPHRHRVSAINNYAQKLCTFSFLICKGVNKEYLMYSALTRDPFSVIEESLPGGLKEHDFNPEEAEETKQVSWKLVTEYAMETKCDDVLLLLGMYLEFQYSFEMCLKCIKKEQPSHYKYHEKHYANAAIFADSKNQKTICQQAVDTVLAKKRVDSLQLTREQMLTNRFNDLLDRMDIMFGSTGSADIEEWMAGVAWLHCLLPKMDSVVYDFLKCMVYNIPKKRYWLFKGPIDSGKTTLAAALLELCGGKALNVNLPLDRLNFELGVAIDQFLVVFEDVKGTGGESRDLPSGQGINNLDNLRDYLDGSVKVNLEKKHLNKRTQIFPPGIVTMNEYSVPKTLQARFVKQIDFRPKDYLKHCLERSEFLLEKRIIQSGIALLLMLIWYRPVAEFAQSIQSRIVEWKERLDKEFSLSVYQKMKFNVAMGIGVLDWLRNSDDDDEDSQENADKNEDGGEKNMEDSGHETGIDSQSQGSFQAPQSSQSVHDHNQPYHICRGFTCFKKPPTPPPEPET", "assay": "TAg ATPase/helicase activity blockers – biochemical (AID 1903)", "conditions": "SV40 large T antigen ATPase/helicase inhibition assay", "units": {"IC50": "µM"}}
{"molecule": "C#CCOCCOCCOCCNc1nc(N2CCN(C(=O)CCCCCCCCCCNC(=O)[C@H]([C@@H](C)CC)n3cc(CCCCN=C(N)N)nn3)CC2)nc(N2CCN(C(=O)CCCCCCCCCCNC(=O)[C@H](CCCN=C(N)N)n3cc(C[C@@H](C)CC)nn3)CC2)n1", "IC50": 10.3}
{"molecule": "O=C(O)c1cc[c]([Hg][Cl])cc1", "IC50": 1.27}
{"molecule": "O=C(O)CCC1c2cc3c4cc2OC2Oc5cc6c(cc51)C(CCC(=O)O)c1cc5c7cc1OC(O6)c1cc6cc(c1)Oc1cc(cc(C(=O)O)c1)Oc1cc8cc(c1)C(Oc1cc(c(cc1C5CCC(=O)O)C3CCC(=O)O)OC(O4)c1cc(cc(c1)Oc1cc(cc(C(=O)O)c1)O8)Oc1cc(cc(C(=O)O)c1)Oc1cc(cc2c1)Oc1cc(cc(C(=O)O)c1)O6)O7", "note": "(centres undefined)", "IC50": "< 0.39"}
{"molecule": "C#CCOCCOCCOCCNc1nc(N2CCN(C(=O)CCCCCCCCCCNC(=O)[C@H]([C@@H](C)CC)n3cc(CCCCN=C(N)N)nn3)CC2)nc(N2CCN(C(=O)CCCCCCCCCCNC(=O)[C@H]([C@@H](C)CC)n3cc(CCCCN=C(N)N)nn3)CC2)n1", "IC50": 5.17}
{"molecule": "C#CCOCCOCCOCCNc1nc(N2CCN(C(=O)CCCCCCCCCCNC(=O)[C@H]([C@@H](C)CC)n3cc(CCCCN=C(N)N)nn3)CC2)nc(N2CCN(C(=O)CCCCCCCCCCNC(=O)[C@H](CCCCN)n3cc(C[C@@H](C)CC)nn3)CC2)n1", "IC50": 13.1}
{"molecule": "C#CCOCCOCCOCCNc1nc(N2CCN(C(=O)CCCCCCCCCCNC(=O)[C@H](CCCN=C(N)N)n3cc(C[C@@H](C)CC)nn3)CC2)nc(N2CCN(C(=O)CCCCCCCCCCNC(=O)[C@@H]([C@H](C)CC)n3cc(CCCCCN)nn3)CC2)n1", "IC50": 18.6}
{"molecule": "CCCCC1(C)OC(=O)C(=Cc2ccc(-c3ccc(Cl)c(C(=O)O)c3)o2)C(=O)O1", "note": "(centres undefined)", "IC50": 17.2}
{"molecule": "C[CH2][Hg][S]c1ccccc1C(=O)O", "IC50": 32.7}
{"molecule": "C[c-]1[c-](C)[c-](C)[c-](C)[c-]1C.[Fe].c1cc2nccc(N3CCCC3)[c-]2c1", "note": "(centres undefined)", "IC50": 17.6}
